# Laboratory results reported in US9963434B2, “N-arylmethyl sulfonamide negative modulators of NR2A” (LUC THERAPEUTICS, priority 2013, dated 2018).
# Where two headings read alike, the source gives them in different places.
# Molecular target: NR1/NR2A (Homo sapiens (Human), UniProt Q05586+Q12879)
# Assay: FDSS Ca2+ influx inhibition assay in HEK293 cells expressing NR1/NR2A
# Format: cell-based
# Conditions: 3 μM glutamate, 3 μM glycine, 1 mM Ca2+
# Description: Cell Culture and plating: HEK293 cells expressing NR1/NR2A (Chantest, Cleveland, Ohio) were grown to 70-80% confluency as an adherent monolayer in standard tissue culture flasks at 37° C., 5% CO2 per supplier's instructions.
# After induction, cell culture medium was removed and cells were rinsed once with Ca^2+ and Mg^2+-free Dulbecco's phosphate buffered saline. Cells were then removed from the flask using TrypLE™ Express (Life Technologies) according to the manufacturer's instructions and collected to 50 ml centrifuge tubes. Following two washes in Ca^2+/Mg^2+-free HBSS with 20 mM HEPES (HHnoCa), cells were counted and viability assessed using trypan blue. To load cells with Ca^2+-sensitive dye, they were resuspended in fluo-8 plus Component B (AAT Bioquest Products) diluted in HHnoCa and incubated 15 minutes at 37° C., followed by 30 minutes at room temp (in dark). Cells were then washed and resuspended in HHnoCa to remove extracellular dye and plated in 384-well plates (Falcon, uncoated) at 20,000-30,000 cells/well in a final volume of 25 μL/well.
# FDSS Assay: To each well of the plate, 10 μL test compound, control (MK801) or HHnoCa buffer was added to a final concentration of 10 μM with a final concentration of DMSO of 0.1%. Following 10 minutes pre-incubation in the dark, plates are loaded onto the Hamamatsu FDSS 6000. After collecting baseline fluorescence images, 3 μM glutamate, 3 μM glycine, and 1 mM Ca^2+ in HHnoCa buffer is added to each well, and Ca^2+ is recorded for 3 minutes. Data were processed by computing ratio of fluorescence at the end of data collection to baseline fluorescence to assess degree of Ca^2+ influx inhibition relative to that observed in MK801.
# [1] = inhibition relative to MK801, read-out: NR2A IC50
# NR1/NR2A, sequence (Q12879 23-1464, other chains not shown): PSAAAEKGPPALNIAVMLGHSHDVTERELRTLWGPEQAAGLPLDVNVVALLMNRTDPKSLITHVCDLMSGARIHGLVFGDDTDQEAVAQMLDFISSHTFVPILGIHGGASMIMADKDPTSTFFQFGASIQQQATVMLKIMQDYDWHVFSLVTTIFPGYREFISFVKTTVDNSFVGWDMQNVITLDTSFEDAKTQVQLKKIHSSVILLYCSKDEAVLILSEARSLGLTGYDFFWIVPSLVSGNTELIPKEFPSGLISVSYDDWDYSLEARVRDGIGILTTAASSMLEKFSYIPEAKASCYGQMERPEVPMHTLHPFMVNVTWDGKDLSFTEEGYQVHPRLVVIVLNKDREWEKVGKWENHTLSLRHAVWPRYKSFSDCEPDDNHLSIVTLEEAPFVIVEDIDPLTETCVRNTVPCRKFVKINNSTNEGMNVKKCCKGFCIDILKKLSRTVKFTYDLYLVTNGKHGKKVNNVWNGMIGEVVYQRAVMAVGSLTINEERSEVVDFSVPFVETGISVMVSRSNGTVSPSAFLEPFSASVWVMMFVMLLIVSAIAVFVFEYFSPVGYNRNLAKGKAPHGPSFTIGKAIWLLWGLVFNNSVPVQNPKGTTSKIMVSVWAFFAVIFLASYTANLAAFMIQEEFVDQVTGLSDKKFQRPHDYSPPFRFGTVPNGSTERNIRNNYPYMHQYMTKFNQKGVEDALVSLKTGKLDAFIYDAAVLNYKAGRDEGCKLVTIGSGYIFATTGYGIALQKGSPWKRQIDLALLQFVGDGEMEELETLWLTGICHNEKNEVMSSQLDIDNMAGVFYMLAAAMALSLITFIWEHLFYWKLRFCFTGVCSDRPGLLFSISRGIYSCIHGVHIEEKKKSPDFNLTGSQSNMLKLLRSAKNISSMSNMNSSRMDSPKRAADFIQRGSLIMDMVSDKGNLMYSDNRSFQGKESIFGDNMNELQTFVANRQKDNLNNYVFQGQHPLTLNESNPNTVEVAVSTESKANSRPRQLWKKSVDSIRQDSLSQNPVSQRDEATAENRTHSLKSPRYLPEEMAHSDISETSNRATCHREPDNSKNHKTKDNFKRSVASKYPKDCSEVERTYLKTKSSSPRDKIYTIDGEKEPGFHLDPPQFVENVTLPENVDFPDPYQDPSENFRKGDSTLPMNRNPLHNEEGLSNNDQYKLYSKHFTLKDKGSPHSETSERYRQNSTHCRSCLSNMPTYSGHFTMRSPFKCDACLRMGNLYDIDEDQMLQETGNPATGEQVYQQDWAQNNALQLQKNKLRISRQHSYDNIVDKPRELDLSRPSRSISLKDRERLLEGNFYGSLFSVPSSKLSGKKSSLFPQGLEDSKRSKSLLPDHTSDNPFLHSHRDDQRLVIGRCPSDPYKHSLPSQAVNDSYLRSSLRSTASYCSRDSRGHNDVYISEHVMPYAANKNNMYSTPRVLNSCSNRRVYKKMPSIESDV
IC50 [1],IC50 (read-out: Binned Activity),SMILES
10 µM,> 10 µM,"Cc1ccc(CNC(=O)c2ccc(CNS(=O)(=O)c3ccc(F)c(Cl)c3)nc2)n1C [6-(3-chloro-4-fluorobenzenesulfon-amidomethyl)-N-[(1,5-dimethyl-1H-pyrrol-2-yl)methyl]pyridine-3-carboxamide]"
–,0.1 to 1 µM,"Cc1ncc(CNC(=O)c2cnc(CNS(=O)(=O)c3ccc(F)cc3)c(C)n2)s1 [5-(4-fluorobenzenesulfon-amidomethyl)-6-methyl-N-[(2-methyl-1,3-thiazol-5-yl)methyl]pyrazine-2-carboxamide]"
10 µM,> 10 µM,"Cc1ncsc1CNC(=O)c1ccc(CNS(=O)(=O)c2ccc(F)c(Cl)c2)cn1 [5-(3-chloro-4-fluorobenzenesulfon-amidomethyl)-N-[(4-methyl-1,3-thiazol-5-yl)methyl]pyridine-2-carboxamide]"
10 µM,> 10 µM,"Cc1ncc(CNC(=O)c2ccc(CNC(=O)c3cccc(F)c3)cn2)s1 [5-{[(3-fluorophenyl)formamido]methyl}-N-[(2-methyl-1,3-thiazol-5-yl)methyl]pyridine-2-carboxamide]"
10 µM,> 10 µM,"Cc1csc(CNC(=O)c2ccc(CNS(=O)(=O)c3ccc(F)c(Cl)c3)nc2)n1 [6-(3-chloro-4-fluorobenzenesulfon-amidomethyl)-N-[(4-methyl-1,3-thiazol-2-yl)methyl]pyridine-3-carboxamide]"
10 µM,> 10 µM,"Cc1ncc(CNC(=O)c2cnc(CNS(=O)(=O)c3ccc(Cl)nc3Cl)cn2)s1 [5-(2,6-dichloropyridine-3-sulfonamidomethyl)-N-[(2-methyl-1,3-thiazol-5-yl)methyl]pyrazine-2-carboxamide]"
–,0.1 to 1 µM,"Cc1ccc(CNC(=O)c2cnc(CNS(=O)(=O)c3ccc(F)c(Cl)c3)cn2)n1C [5-(3-chloro-4-fluorobenzenesulfon-amidomethyl)-N-[(1,5-dimethyl-1H-pyrrol-2-yl)methyl]pyrazine-2-carboxamide]"
–,1 to 10 µM,CC(NC(=O)c1ccc(CNS(=O)(=O)c2ccc(F)c(Cl)c2)cn1)c1cccs1 (stereo not drawn) [5-(3-chloro-4-fluorobenzenesulfon-amidomethyl)-N-[1-(thiophen-2-yl)ethyl]pyridine-2-carboxamide]
10 µM,> 10 µM,Cc1cccc(CNC(=O)c2ccc(CNS(=O)(=O)c3ccc(F)c(Cl)c3)cn2)n1 [5-(3-chloro-4-fluorobenzenesulfon-amidomethyl)-N-[(6-methylpyridin-2-yl)methyl]pyridine-2-carboxamide]
10 µM,> 10 µM,COc1cc(CNC(=O)c2ccc(CNS(=O)(=O)c3ccc(F)c(Cl)c3)nc2)ccn1 [6-(3-chloro-4-fluorobenzenesulfon-amidomethyl)-N-[(2-methoxypyridin-4-yl)methyl]pyridine-3-carboxamide]
10 µM,> 10 µM,"Cc1ncc(CNC(=O)c2ccc(CNS(=O)(=O)c3ccc(Cl)nc3Cl)cn2)s1 [5-(2,6-dichloropyridine-3-sulfonamidomethyl)-N-[(2-methyl-1,3-thiazol-5-yl)methyl]pyridine-2-carboxamide]"
–,0.1 to 1 µM,"O=C(NCc1cncs1)c1cnc(CNS(=O)(=O)c2ccc(F)c(Cl)c2)cn1 [5-(3-chloro-4-fluorobenzenesulfon-amidomethyl)-N-(1,3-thiazol-5-ylmethyl)pyrazine-2-carboxamide]"
10 µM,> 10 µM,Cc1cccc(CNC(=O)c2cnc(CNS(=O)(=O)c3ccc(F)c(Cl)c3)cn2)n1 [5-(3-chloro-4-fluorobenzenesulfon-amidomethyl)-N-[(6-methylpyridin-2-yl)methyl]pyrazine-2-carboxamide]
10 µM,> 10 µM,O=C(NCc1ccccn1)c1ccc(CNS(=O)(=O)c2ccc(F)c(Cl)c2)cn1 [5-(3-chloro-4-fluorobenzenesulfon-amidomethyl)-N-(pyridin-2-ylmethyl)pyridine-2-carboxamide]
–,0.1 to 1 µM,"Cc1ncc(CNC(=O)c2cnc(CNS(=O)(=O)c3ccc(F)c(Cl)c3)c(C(F)(F)F)n2)s1 [5-(3-chloro-4-fluorobenzenesulfon-amidomethyl)-N-[(2-methyl-1,3-thiazol-5-yl)methyl]-6-(trifluoromethyl)pyrazine-2-carboxamide]"
10 µM,> 10 µM,"Cc1cc(CNC(=O)c2ccc(CNS(=O)(=O)c3ccc(F)c(Cl)c3)cn2)n(C)n1 [5-(3-chloro-4-fluorobenzenesulfon-amidomethyl)-N-[(1,3-dimethyl-1H-pyrazol-5-yl)methyl]pyridine-2-carboxamide]"

# Second part, the compound before the results:
SMILES,IC50 [1],IC50 (read-out: Binned Activity)
"Cc1ncc(CNC(=O)c2ccc(CNS(=O)(=O)c3ccsc3)cn2)s1 [N-[(2-methyl-1,3-thiazol-5-yl)methyl]-5-(thiophene-3-sulfonamidomethyl) pyridine-2-carboxamide]",10 µM,> 10 µM
"Cc1ncc(CNC(=O)c2ncc(CNS(=O)(=O)c3ccc(F)c(Cl)c3)cn2)s1 [5-(3-chloro-4-fluorobenzenesulfon-amidomethyl)-N-[(2-methyl-1,3-thiazol-5-yl)methyl]pyrimidine-2-carboxamide]",10 µM,> 10 µM
"Cc1ncc(CNC(=O)c2cnc(CNS(=O)(=O)c3cc(Cl)ccc3F)cn2)s1 [5-(5-chloro-2-fluorobenzenesulfon-amidomethyl)-N-[(2-methyl-1,3-thiazol-5-yl)methyl]pyrazine-2-carboxamide]",10 µM,> 10 µM
Cc1ccncc1CNC(=O)c1ccc(CNS(=O)(=O)c2ccc(F)c(Cl)c2)nc1 [6-(3-chloro-4-fluorobenzenesulfon-amidomethyl)-N-[(4-methylpyridin-3-yl)methyl]pyridine-3-carboxamide],–,1 to 10 µM
"Cc1ncc(CNC(=O)c2ccc(CNS(=O)(=O)c3cc(Cl)ccc3F)cn2)s1 [5-(5-chloro-2-fluorobenzenesulfon-amidomethyl)-N-[(2-methyl-1,3-thiazol-5-yl)methyl]pyridine-2-carboxamide]",10 µM,> 10 µM
"Cc1ncc(CNC(=O)c2cnc(CNS(=O)(=O)c3ccccc3F)cn2)s1 [5-(2-fluorobenzenesulfon-amidomethyl)-N-[(2-methyl-1,3-thiazol-5-yl)methyl]pyrazine-2-carboxamide]",10 µM,> 10 µM
Cc1ccc(CNC(=O)c2cnc(CNS(=O)(=O)c3ccc(F)c(Cl)c3)cn2)s1 [5-(3-chloro-4-fluorobenzenesulfon-amidomethyl)-N-[(5-methylthiophen-2-yl)methyl]pyrazine-2-carboxamide],10 µM,> 10 µM
"Cc1ncc(CNC(=O)c2ccc(CNS(=O)(=O)c3ccn(C)n3)cn2)s1 [N-[(2-methyl-1,3-thiazol-5-yl)methyl]-5-(1-methyl-1H-pyrazole-3-sulfonamidomethyl) pyridine-2-carboxamide]",10 µM,> 10 µM
Cn1nccc1CNC(=O)c1ccc(CNS(=O)(=O)c2ccc(F)c(Cl)c2)nc1 [6-(3-chloro-4-fluorobenzenesulfon-amidomethyl)-N-[(1-methyl-1H-pyrazol-5-yl)methyl]pyridine-3-carboxamide],10 µM,> 10 µM
"Cc1nc(C)c(CNC(=O)c2ccc(CNS(=O)(=O)c3ccc(F)c(Cl)c3)cn2)s1 [5-(3-chloro-4-fluorobenzenesulfon-amidomethyl)-N-[(dimethyl-1,3-thiazol-5-yl)methyl]pyridine-2-carboxamide]",10 µM,> 10 µM
"Cc1ncc(CNC(=O)c2ccc(CNS(=O)(=O)c3ccc(F)c(Cl)c3)nn2)s1 [6-(3-chloro-4-fluorobenzenesulfon-amidomethyl)-N-[(2-methyl-1,3-thiazol-5-yl)methyl]pyridazine-3-carboxamide]",10 µM,> 10 µM
"O=C(NCc1cocn1)c1ccc(CNS(=O)(=O)c2ccc(F)c(Cl)c2)nc1 [6-(3-chloro-4-fluorobenzenesulfon-amidomethyl)-N-(1,3-oxazol-4-ylmethyl)pyridine-3-carboxamide]",10 µM,> 10 µM
"Cc1ncc(CNC(=O)c2ccc(CNS(=O)(=O)c3cc(F)cc(F)c3)cn2)s1 [5-(3,5-difluorobenzenesulfon-amidomethyl)-N-[(2-methyl-1,3-thiazol-5-yl)methyl]pyridine-2-carboxamide]",10 µM,> 10 µM
"O=C(NCc1ccno1)c1ccc(CNS(=O)(=O)c2ccc(F)c(Cl)c2)nc1 [6-(3-chloro-4-fluorobenzenesulfon-amidomethyl)-N-(1,2-oxazol-5-ylmethyl)pyridine-3-carboxamide]",10 µM,> 10 µM
O=C(NCc1ncccn1)c1ccc(CNS(=O)(=O)c2ccc(F)c(Cl)c2)nn1 [6-(3-chloro-4-fluorobenzenesulfon-amidomethyl)-N-(pyrimidin-2-ylmethyl)pyridazine-3-carboxamide],10 µM,> 10 µM
"Cc1ncc(CNC(=O)c2ccc(CNS(=O)(=O)c3ccc(F)cc3)cn2)s1 [5-(4-fluorobenzenesulfon-amidomethyl)-N-[(2-methyl-1,3-thiazol-5-yl)methyl]pyridine-2-carboxamide]",–,1 to 10 µM
